Measured values published in patent publication US8987247B2, “Monoacylglycerol lipase inhibitors for the treatment of metabolic diseases and related disorders” (Janssen Pharmaceutica NV, priority 2011, dated 2015).
Marks after values point to notes of the source that are not given here.

Tests used:
rats, strain CD(SD)IGS = assay: 5-Day Repeat Dose with Weight Monitoring in Rats; type: in vivo, rat; settings: for Mean body weight Change: Day −1 to Day 4
Method: Male and Female rats, strain CD(SD)IGS (Charles River Laboratories International, Inc., MA) of 8 weeks of age were individually housed and maintained on a 12-hr light/dark cycle. Rats were fed ad libitum with a standard diet (Rodent Diet 5001, PMI Nutrition International, Indiana). […] Rats were weighed predose and on days 1 and 4. Clinical observations were recorded prior to dosing, at 2 hours post-dose each day. Rats were fasted overnight on Day 4 and blood was collected on Day 5 from the retro-orbital sinus following anesthesia with a 70/30% carbon dioxide/oxygen mixture. Blood was collected into tubes containing tripotassium EDTA for hematology panel and no additive for serum chemistry determinations. Rats were euthanized by CO2 inhalation and thoracic and abdominal cavities were examined and weights of liver determined.

beagle dogs = assay: 5-Day Repeat Dose with Weight Monitoring in Dogs; type: in vivo, dog; parameters: key to Clinical Observations: Stained urogenital area (no. of dogs) / Body Temperature Change / Body Weight Change: —: No noteworthy findings; settings: for Body Weight Change: 5 days, Day-1 to Day 5; for Body Temperature Change: 4 hours postdose on Day 0
Method: Male and female beagle dogs, 15 months of age, were individually housed and maintained on a 12-hourlight/dark cycle. Dogs were given 300 g/day of Advanced Protocol™ Non-Certified High Density Canine Diet 5L18 (pMfID Nutrition International). Food was provided 0.5 to 2 hours post-dose, except on days of toxicokinetic blood sampling when food was provided after the 4 hour time point. Canned food was supplemented beginning on day 3. A compound of formula (I) was administered orally via gavage using a stomach tube once daily (initiating on Day 0) to male and female dogs (1 each per dose) for 5 consecutive days at 0, 5, 15 and 45 mg/kg/day. Dogs were weighed on Day-1 and Day 5 prior to necropsy. Food consumption was determined 3 days predose and then daily. Body temperature was measured at 0 (predose), 4 and 24 hours on Days 0 and 4. Clinical observations were recorded predose and 2 hours postdose daily. Dogs were fasted overnight prior to blood collection. Blood was collected from all dogs predose on Day-8 and prior to dosing on Day 4 from the jugular vein. Blood was collected into tubes containing tripotassium EDTA for hematology and no additive for serum chemistry determinations. At necropsy, the thoracic and abdominal cavities were examined.

Sprague-Dawley rats = assay: Effect on Food Intake after Food Deprivation in Rats; type: in vivo, rat; settings: 30 mg/kg p.o., rats fasted 18 h, N=6/group
Method: In rats, food deprivation or restriction is a standard method for inducing increased food intake. In other words, depriving the rats of food and then subsequently presenting them with food results, predictably in over-eating (also referred to as rebound hyperphagia). To study the effect of compounds of formula (I) on feeding behavior, rats were treated after food deprivation.
Adult, male Sprague-Dawley rats were single-housed on a 12 h light/dark cycle and received food and water ad libitum, except where otherwise indicated. Rats were allowed to acclimate to the housing room for at least 1 week prior to testing. One day prior to treatment, each rat was transferred to a new cage that was free of bedding and contained a wire grid floor, and all food was removed. Rats were fasted for 18 h before treatment. Rats were divided into two groups (N=6/group) and received either a compound of formula (I) at 30 mg/kg, p.o. or vehicle. At dosing, all rats received a pre-measured amount of standard rodent chow. After 30 min, the food was re-weighed to determine the amount consumed.

O=C(c1ccc2c(ccn2-c2ccc(F)cc2)c1)N1CC(N2CCN(C(=O)c3nccs3)CC2)C1 [Cpd 1, 1-(4-Fluorophenyl)-5-({3-[4-(1,3-thiazol-2-ylcarbonyl)piperazin-1-yl]azetidin-1-yl}carbonyl)-1H-indole]
Mean body weight (rats, strain CD(SD)IGS; female rats, 15 mg/kg/day oral, Day 4): 226.98 +/− 10.29
Mean body weight (rats, strain CD(SD)IGS; female rats, 15 mg/kg/day oral, Day −1 (predose)): 203.86 +/− 6.13
Mean body weight (rats, strain CD(SD)IGS; female rats, 50 mg/kg/day oral, Day −1 (predose)): 199.16 +/− 5.66
Mean body weight Change (rats, strain CD(SD)IGS; female rats, 50 mg/kg/day oral): 8.54 +/− 2.32
Mean body weight (rats, strain CD(SD)IGS; male rats, 15 mg/kg/day oral, Day 4): 301.94 +/− 7.52
Mean body weight (rats, strain CD(SD)IGS; male rats, 15 mg/kg/day oral, Day −1 (predose)): 273.34 +/− 4.80
Mean body weight Change (rats, strain CD(SD)IGS; male rats, 15 mg/kg/day oral): 28.60 +/− 2.90
Mean body weight (rats, strain CD(SD)IGS; male rats, 50 mg/kg/day oral, Day 4): 278.78 +/− 6.95
Mean body weight (rats, strain CD(SD)IGS; male rats, 50 mg/kg/day oral, Day −1 (predose)): 272.66 +/− 6.92
Mean body weight Change (rats, strain CD(SD)IGS; male rats, 50 mg/kg/day oral): 6.10 +/− 3.56*
Clinical Observations: Emesis (no. of dogs) (beagle dogs; dog F:1, 5 mg/kg daily oral): 1
Clinical Observations: Feces, absent (no. of dogs) (beagle dogs; dog F:1, 5 mg/kg daily oral): 1
Clinical Observations: Feces, decrease (no. of dogs) (beagle dogs; dog F:1, 5 mg/kg daily oral): 1
Clinical Observations: Stained urogenital area (no. of dogs) (beagle dogs; dog F:1, 5 mg/kg daily oral): —
Food Consumption (beagle dogs; dog F:1, 5 mg/kg daily oral): ↓
Body Weight Change (beagle dogs; dog F:1, 5 mg/kg daily oral): −0.90
Body Temperature Change (beagle dogs; dog F:1, 5 mg/kg daily oral): −3.2
Clinical Observations: Emesis (no. of dogs) (beagle dogs; dog F:1, 15 mg/kg daily oral): 1
Clinical Observations: Feces, absent (no. of dogs) (beagle dogs; dog F:1, 15 mg/kg daily oral): 1
Clinical Observations: Feces, decrease (no. of dogs) (beagle dogs; dog F:1, 15 mg/kg daily oral): 1
Clinical Observations: Stained urogenital area (no. of dogs) (beagle dogs; dog F:1, 15 mg/kg daily oral): 1
Food Consumption (beagle dogs; dog F:1, 15 mg/kg daily oral): ↓
Body Weight Change (beagle dogs; dog F:1, 15 mg/kg daily oral): —
Body Temperature Change (beagle dogs; dog F:1, 15 mg/kg daily oral): −1.6
Clinical Observations: Emesis (no. of dogs) (beagle dogs; dog F:1, 45 mg/kg daily oral): 1
Clinical Observations: Feces, absent (no. of dogs) (beagle dogs; dog F:1, 45 mg/kg daily oral): 1
Clinical Observations: Feces, decrease (no. of dogs) (beagle dogs; dog F:1, 45 mg/kg daily oral): 1
Clinical Observations: Stained urogenital area (no. of dogs) (beagle dogs; dog F:1, 45 mg/kg daily oral): 1
Food Consumption (beagle dogs; dog F:1, 45 mg/kg daily oral): ↓
Body Weight Change (beagle dogs; dog F:1, 45 mg/kg daily oral): −1.28
Body Temperature Change (beagle dogs; dog F:1, 45 mg/kg daily oral): —
Clinical Observations: Emesis (no. of dogs) (beagle dogs; dog M:1, 5 mg/kg daily oral): 1
Clinical Observations: Feces, absent (no. of dogs) (beagle dogs; dog M:1, 5 mg/kg daily oral): 1
Clinical Observations: Feces, decrease (no. of dogs) (beagle dogs; dog M:1, 5 mg/kg daily oral): 1
Clinical Observations: Stained urogenital area (no. of dogs) (beagle dogs; dog M:1, 5 mg/kg daily oral): —
Food Consumption (beagle dogs; dog M:1, 5 mg/kg daily oral): ↓
Body Weight Change (beagle dogs; dog M:1, 5 mg/kg daily oral): −1.10
Body Temperature Change (beagle dogs; dog M:1, 5 mg/kg daily oral): −3.4
Clinical Observations: Emesis (no. of dogs) (beagle dogs; dog M:1, 15 mg/kg daily oral): 1
Clinical Observations: Feces, absent (no. of dogs) (beagle dogs; dog M:1, 15 mg/kg daily oral): 1
Clinical Observations: Feces, decrease (no. of dogs) (beagle dogs; dog M:1, 15 mg/kg daily oral): 1
Clinical Observations: Stained urogenital area (no. of dogs) (beagle dogs; dog M:1, 15 mg/kg daily oral): 1
Food Consumption (beagle dogs; dog M:1, 15 mg/kg daily oral): ↓
Body Weight Change (beagle dogs; dog M:1, 15 mg/kg daily oral): −0.74
Body Temperature Change (beagle dogs; dog M:1, 15 mg/kg daily oral): —
Clinical Observations: Emesis (no. of dogs) (beagle dogs; dog M:1, 45 mg/kg daily oral): 1
Clinical Observations: Feces, absent (no. of dogs) (beagle dogs; dog M:1, 45 mg/kg daily oral): 1
Clinical Observations: Feces, decrease (no. of dogs) (beagle dogs; dog M:1, 45 mg/kg daily oral): 1
Clinical Observations: Stained urogenital area (no. of dogs) (beagle dogs; dog M:1, 45 mg/kg daily oral): 1
Food Consumption (beagle dogs; dog M:1, 45 mg/kg daily oral): ↓
Body Weight Change (beagle dogs; dog M:1, 45 mg/kg daily oral): −0.78
Body Temperature Change (beagle dogs; dog M:1, 45 mg/kg daily oral): −1.9
Food Intake (g of food over 30 min) (Sprague-Dawley rats): 1.60 ± 1.02 g
